Measured values published in article PMC4360375 (Journal of Medicinal Chemistry, 2015).
Where two headings read alike, the source gives them in different places. Each block holds one molecule with its values, some of them ahead of it.

Legend:
rGAT1 = molecular target: T1, rGAT1 (Rattus norvegicus, UniProt P23978); test: [3H]-GABA uptake inhibition assay in HEK293 cells stably expressing rGAT1; format: cell-based; conditions: for remaining activity at 100 µM: HEK293, 100 μM of the respective compound; for remaining activity at 100 µM / % uptake (remaining uptake of [3H]-GABA): n = 3, relative to saline; for effect on [3H]-GABA uptake, in words: 100 μM compound; for % uptake (remaining uptake of [3H]-GABA): 100 μM of the respective compound
T1 construct: Y prefix of 'YrGAT-1' (own knowledge: yellow fluorescent protein, YFP, fused to rGAT1 in this group's constructs); expressed in transfected cells; host or cells: HEK293

[1] = parameters: method as in PMID 10903390; conditions: cited from earlier work
[2] = tested on: other neurotransmitter reuptake systems (dopamine, serotonin, choline, aspartate); parameters: method as in PMID 3509068; conditions: cited from earlier work
[3] = tested on: GABA uptake, rat synaptosome; conditions: cited from earlier work; for pIC50: literature data set
[4] = ref 10.1016/S0968-0896(01)00148-1

remaining activity at 100 µM (rGAT1): 91%
Molecule: Fc1cc(Br)cc(CN2CCCC(c3nnn[nH]3)C2)c1 (stereo not drawn) [compound 19]

Molecule: O=C(O)C1CCCNC1 (stereo not drawn) [compound 2, nipecotic acid]
blood-brain barrier penetration [1]: unable to penetrate the blood–brain barrier

remaining activity at 100 µM (rGAT1): 105%
Molecule: CCN(CCC(=O)O)Cc1nc2c(C)cccc2c(=O)[nH]1 [compound 12]

Molecule: bepotastine [compound 25]
effect on [3H]-GABA uptake, in words (rGAT1): inactive
effect on [3H]-GABA uptake, in words (rGAT1; listed as bepotastine): essentially inactive
% uptake (remaining uptake of [3H]-GABA) (rGAT1): 103.8%

remaining activity at 100 µM (rGAT1): 99%
Molecule: O=C(O)CN1CCC(CCc2ccccc2C(F)(F)F)CC1 [compound 14]

remaining activity at 100 µM (rGAT1): 95.1%
Molecule: O=C(O)CN1CCCC1Cc1ccccc1Cl (stereo not drawn) [compound 16]

remaining activity at 100 µM (rGAT1): 93.9%
Molecule: Cc1nn(Cc2ccccc2Cl)c(C)c1CN(C)C(C)C(=O)O (stereo not drawn) [compound 20]

remaining activity at 100 µM (rGAT1): 94.7%
Molecule: O=C(CN1CCC[C@H]1C(=O)O)NC(c1ccc(F)cc1)c1cccs1 (stereo partly drawn) [compound 21]

Molecule: liothyronine [27a]
activity on other neurotransmitter reuptake systems [2]: without major activity

effect on [3H]-GABA uptake, in words (rGAT1): some weak activity
remaining activity at 100 µM (rGAT1): 79.3%
Molecule: O=C(CCN1CCCC1C(=O)O)Nc1ccccc1Oc1ccccc1 (stereo not drawn) [compound 18]

remaining activity at 100 µM (rGAT1): 108%
Molecule: NC(CSCc1cccc2ccccc12)C(=O)O (stereo not drawn) [compound 23]

effect on [3H]-GABA uptake, in words (rGAT1): reduced uptake, albeit weaker than 27a
remaining activity at 100 µM (rGAT1): 54.2%
Molecule: N[C@@H](Cc1cc(I)c(Oc2cc(I)c(O)c(I)c2)c(I)c1)C(=O)O [27b, levothyroxine]

Molecule: ramipril [compound 26]
effect on [3H]-GABA uptake, in words (rGAT1): inactive
% uptake (remaining uptake of [3H]-GABA) (rGAT1): 107.7%

remaining activity at 100 µM (rGAT1): 104%
Molecule: Cc1cc(S(=O)(=O)N2CCN(CCC(=O)O)CC2)ccc1Br [compound 22]

remaining activity at 100 µM (rGAT1): 105%
Molecule: CCC(CC)OC1C=C(C(=O)O)CC(N)C1NC(C)=O (stereo not drawn) [compound 24]

Molecule: O=C(O)C1=CCCNC1 [compound 3, guvacine]
blood-brain barrier penetration [1]: unable to penetrate the blood–brain barrier

Molecule: O=C(O)[C@@H]1CCCN(CCOCCN2c3ccccc3CCc3ccc(Cl)cc32)C1 [An_2001/5_27, Clc1cc2N(c3c(CCc2cc1)cccc3)CCOCCN1C[C@@H](CCC1)C(O)=O]
pIC50 ([3]; ref 10.1021/jm990513k): 7.155

Molecule: O=C(O)[C@@H]1CCCN(CCO/N=C2\C[C@H](c3ccccc3)c3ccccc32)C1 [An_2001/6_28, O(\N=C\1/C[C@@H](c2c/1cccc2)c1ccccc1)CCN1C[C@@H](CCC1)C(O)=O]
pIC50 [3, 4]: 5.852

Molecule: O=C(O)[C@@H]1CCCN(CCCOCCCN(c2ccccc2)c2ccccc2)C1 [An_1999/4_(R)-19, O(CCCN1C[C@@H](CCC1)C(O)=O)CCCN(c1ccccc1)c1ccccc1]
pIC50 ([3]; ref 10.1021/jm980492e): 5.523

Molecule: O=C(O)[C@@H]1CCCN(CCOc2ccccc2)C1 [An_2001/6_32, O(CCN1C[C@@H](CCC1)C(O)=O)c1ccccc1]
pIC50 [3, 4]: 5.046

Molecule: O=C(O)[C@@H]1CCCN(CCO/C=C(/c2ccccc2)c2ccccc2Cl)C1 [An_1999/3_108, Clc1ccccc1\C(=C/OCCN1C[C@@H](CCC1)C(O)=O)\c1ccccc1]
pIC50 ([3]; ref 10.1021/jm981027k): 7.301

Molecule: Cc1ccsc1/C(=N\OCCN1CCC[C@@H](C(=O)O)C1)c1ccc(Cl)cc1Cl [An_1999/3_85, Clc1cc(Cl)ccc1\C(=N\OCCN1C[C@@H](CCC1)C(O)=O)\c1sccc1C]
pIC50 ([3]; ref 10.1021/jm981027k): 7.523

Molecule: O=C(O)[C@@H]1CCCN(CCO/N=C/C2(c3ccccc3)CCCC2)C1 [An_2001/6_23, O(\N=C\C1(CCCC1)c1ccccc1)CCN1C[C@@H](CCC1)C(O)=O]
pIC50 [3, 4]: 6.337

Molecule: O=C(O)[C@@H]1CCCN(CCO/N=C2\c3ccccc3CC[C@@H]2c2ccccc2)C1 [An_2001/6_27, O(\N=C\1/c2c(CC[C@@H]/1c1ccccc1)cccc2)CCN1C[C@@H](CCC1)C(O)=O]
pIC50 [3, 4]: 6.058

Molecule: CC(C)CN(CCOCCN1CCC[C@@H](C(=O)O)C1)c1ccccc1 [An_2001/6_44, O(CCN1C[C@@H](CCC1)C(O)=O)CCN(CC(C)C)c1ccccc1]
pIC50 [3, 4]: 6.553

Molecule: O=C(O)[C@@H]1CCCN(CCCCCCC=C(c2ccccc2)c2ccccc2)C1 [An_1999/4_(R)-28, OC(=O)[C@@H]1CCCN(C1)CCCCCC\C=C(\c1ccccc1)/c1ccccc1]
pIC50 ([3]; ref 10.1021/jm980492e): 5.866

Molecule: O=C(O)[C@@H]1CCCN(CCON=C(c2ccccc2Cl)c2ccccc2Cl)C1 [An_1999/3_74, Clc1ccccc1\C(=N\OCCN1C[C@@H](CCC1)C(O)=O)\c1ccccc1Cl]
pIC50 ([3]; ref 10.1021/jm981027k): 7.398

Molecule: O=C(O)[C@@H]1CCCN(CCOCC=C(c2ccc(F)cc2)c2ccc(F)cc2)C1 [An_1999/4_(R)-26, Fc1ccc(cc1)\C(=C\COCCN1C[C@@H](CCC1)C(O)=O)\c1ccc(F)cc1]
pIC50 ([3]; ref 10.1021/jm980492e): 5.836

Molecule: O=C(O)[C@@H]1CCCN(CCCCCC(c2ccccc2)c2ccccc2)C1 [compound 9, OC(=O)[C@@H]1CCCN(C1)CCCCCC(c1ccccc1)c1ccccc1]
IC50 ([3]; Figure 2, rat synaptosome GABA uptake, read-out: literature IC50): 1.59 µM
pIC50 ([3]; ref 10.1021/jm980492e): 5.799

Molecule: O=C(O)C1=CCCN(CCC=C(c2ccccc2)c2ccccc2)C1 [SK&F-100330-A, OC(=O)C=1CN(CCC=1)CC\C=C(\c1ccccc1)/c1ccccc1]
pIC50 ([3]; ref 10.1021/jm00064a005): 6.699

remaining activity at 100 µM (rGAT1): 93.2%
Molecule: CC(C(=O)Nc1ccc(Br)cc1Br)N1CCCC(CC(=O)O)C1 (stereo not drawn) [compound 13]

Molecule: O=C(O)[C@@H]1CCCN(CCOCCC(c2ccccc2)c2ccccc2)C1 [compound 8, O(CCC(c1ccccc1)c1ccccc1)CCN1C[C@@H](CCC1)C(O)=O]
pIC50 ([3]; ref 10.1021/jm980492e): 7.26

Molecule: CC(C)CN(CCOCCN1CCC[C@@H](C(=O)O)C1)c1ccc(F)cc1Cl [An_2001/6_45, Clc1cc(F)ccc1N(CC(C)C)CCOCCN1C[C@@H](CCC1)C(O)=O]
pIC50 [3, 4]: 6.827

Molecule: O=C(O)[C@@H]1CCCN(CCOCCN2c3ccccc3C=Cc3ccccc32)C1 [An_2001/5_26, O(CCN1C[C@@H](CCC1)C(O)=O)CCN1c2c(C=Cc3c1cccc3)cccc2]
pIC50 ([3]; ref 10.1021/jm990513k): 6.187

remaining activity at 100 µM (rGAT1): 127%
Molecule: N[C@H](Cc1cc(I)c(Oc2cc(I)c(O)c(I)c2)c(I)c1)C(=O)O [27c, dextrothyroxine]

Molecule: O=C(O)[C@@H]1CCCN(CCOCCN2c3ccccc3CCc3ccc(F)cc32)C1 [An_2001/5_29, Fc1cc2N(c3c(CCc2cc1)cccc3)CCOCCN1C[C@@H](CCC1)C(O)=O]
pIC50 ([3]; ref 10.1021/jm990513k): 6.577

Molecule: CCc1ccsc1C(=NOCCN1CCC[C@@H](C(=O)O)C1)c1sccc1CC [An_1999/3_87, s1ccc(CC)c1\C(=N\OCCN1C[C@@H](CCC1)C(O)=O)\c1sccc1CC]
pIC50 ([3]; ref 10.1021/jm981027k): 7.046

Molecule: O=C(O)[C@@H]1CCCN(CCCCCCCN(c2ccccc2)c2ccccc2)C1 [An_1999/4_(R)-14]
pIC50 ([3]; ref 10.1021/jm980492e): 6.638

Molecule: Cc1ccccc1/C(=C\OCCN1CCC[C@@H](C(=O)O)C1)c1ccccc1Cl [An_1999/3_101, Clc1ccccc1/C(=C/OCCN1C[C@@H](CCC1)C(O)=O)/c1ccccc1C]
pIC50 ([3]; ref 10.1021/jm981027k): 8

Molecule: Cc1ccccc1C(CCOCCN1CCC[C@@H](C(=O)O)C1)c1ccccc1C [An_1999/4_(R)-32, O(CCC(c1ccccc1C)c1ccccc1C)CCN1C[C@@H](CCC1)C(O)=O]
pIC50 ([3]; ref 10.1021/jm980492e): 6.444

Molecule: O=C(O)C1=CCCN(CCOCCC2c3ccccc3CCc3ccccc32)C1 [An_2001/5_38, O(CCC1c2c(CCc3c1cccc3)cccc2)CCN1CC(=CCC1)C(O)=O]
pIC50 ([3]; ref 10.1021/jm990513k): 5.921

Molecule: O=C(O)[C@@H]1CCCN(CCOC/C(=C\c2ccccc2)c2ccccc2)C1 [An_2001/6_42, O(CCN1C[C@@H](CCC1)C(O)=O)C\C(=C/c1ccccc1)\c1ccccc1]
pIC50 [3, 4]: 5.523

remaining activity at 100 µM (rGAT1): 104%
Molecule: CC(C(=O)O)N1CCCN(C(=O)c2ccccc2C(F)(F)F)CC1 (stereo not drawn) [compound 15]

Molecule: Cc1ccccc1/C(=N/OCCN1CCC[C@H](C(=O)O)C1)c1sccc1C [An_1999/3_82, s1ccc(C)c1/C(=N\OCCN1C[C@H](CCC1)C(O)=O)/c1ccccc1C]
pIC50 ([3]; ref 10.1021/jm981027k): 7.097

Molecule: O=C(O)[C@@H]1CCCN(CCOc2ccccc2-c2ccccc2)C1 [An_2001/6_33, O(CCN1C[C@@H](CCC1)C(O)=O)c1ccccc1-c1ccccc1]
pIC50 [3, 4]: 5.235
